According to US20210246115A1 (Bioimics AB, priority 2017, published 2021):
Counter-ions that a name gives are not always drawn. Like-named read-outs stand apart in the source and are kept apart here.

Tests used:
[1] = system: E. coli JW5503 (efflux defective); assay: MIC, E. coli JW5503 (efflux defective); format: cell-based; conditions: Escherichia coli, read-out: E. coli JW5503 (efflux defective) MIC
[2] = system: Pseudomonas aeruginosa (ATCC27853); assay: MIC, broth microdilution (CLSI), Pseudomonas aeruginosa; format: cell-based
[3] = system: H. influenzae ATCC 49247; assay: MIC, H. influenzae ATCC 49247; format: cell-based; conditions: Haemophilus influenzae, ATCC49247; Table XIV B. Gram-negative bacteria
[4] = system: S. pneumoniae ATCC 49619; assay: MIC, S. pneumoniae ATCC 49619; format: cell-based; conditions: Streptococcus pneumoniae, ATCC49619; Table XIV A. Gram-positive bacteria
[5] = system: Escherichia coli (ATCC25922); assay: MIC, broth microdilution (CLSI), Escherichia coli; conditions: Escherichia coli
[6] = system: A. baumannii ATCC 17978; assay: MIC, A. baumannii ATCC 17978; format: cell-based; conditions: Acinetobacter baumannii, ATCC17978; Table XIV B. Gram-negative bacteria
[7] = system: K. pneumoniae ATCC 43816; assay: MIC, K. pneumoniae ATCC 43816; format: cell-based; conditions: Klebsiella pneumoniae, ATCC43816; Table XIV B. Gram-negative bacteria
[8] = system: N. gonorrhoeae ATCC 700825; assay: MIC, N. gonorrhoeae ATCC 700825; format: cell-based; conditions: Neisseria gonorrhoeae, ATCC700825; Table XIV B. Gram-negative bacteria
[9] = system: Enterococcus faecalis (ATCC29212); assay: MIC, broth microdilution (CLSI), Enterococcus faecalis; format: cell-based
[10] = system: S. aureus MRSA ATCC 33591; assay: MIC, S. aureus MRSA ATCC 33591; format: cell-based; conditions: Staphylococcus aureus, read-out: S. aureus MRSA ATCC 33591 MIC
[11] = system: Staphylococcus aureus subsp. aureus (ATCC29213); assay: MIC, broth microdilution (CLSI), Staphylococcus aureus ATCC29213; format: cell-based; conditions: Staphylococcus aureus
[12] = system: E. faecium ATCC 700221; assay: MIC, E. faecium ATCC 700221; format: cell-based; conditions: Enterococcus faecium
[13] = system: E. coli RNase P RNA, M1 RNA; assay: Inhibition of bacterial RNase P activity, IC50 determination (cleavage of pATSerUG by M1 RNA); format: biochemical; conditions: NI: No inhibition
[14] = system: Staphylococcus aureus (ATCC25923); assay: MIC, broth microdilution (CLSI), Staphylococcus aureus ATCC25923; conditions: Staphylococcus aureus, ATCC25923, read-out: S. aureus ATCC 25923 MIC
[15] = system: P. aeruginosa NTUH974 (MDR); assay: MIC, P. aeruginosa NTUH974 (MDR); format: cell-based; conditions: Pseudomonas aeruginosa, read-out: P. aeruginosa NTUH974 (MDR) MIC
[16] = ATCC27853, Table XIV B. Gram-negative bacteria, read-out: P. aeruginosa ATCC 27853 MIC
[17] = ATCC25922, read-out: E. coli ATCC 25922 MIC, Table XIII
[18] = ATCC25922, read-out: E. coli ATCC 25922 MIC, Table XIV B. Gram-negative bacteria
[19] = ATCC29212, Table XIV A. Gram-positive bacteria, read-out: E. faecalis ATCC 29212 MIC
[20] = Table XIV A. Gram-positive bacteria
[21] = ATCC29213, Table XIV A. Gram-positive bacteria, read-out: S. aureus ATCC 29213 MIC
[22] = ATCC700221, Table XIV A. Gram-positive bacteria, read-out: E. faecium ATCC 700221 MIC
[23] = Table XIV B. Gram-negative bacteria
[24] = ATCC27853, read-out: P. aeruginosa ATCC 27853 MIC
[25] = ATCC29212, read-out: E. faecalis ATCC 29212 MIC
[26] = ATCC29213, read-out: S. aureus ATCC 29213 MIC, Table XIV A. Gram-positive bacteria
[27] = ATCC700221, read-out: E. faecium ATCC 700221 MIC

SMILES	MIC [1] [µg/mL]	MIC [2, 16] [µg/mL]	MIC [3] [µg/mL]	MIC [4] [µg/mL]	MIC [5, 17] [µg/mL]	MIC [5, 18] [µg/mL]	MIC [6] [µg/mL]	MIC [7] [µg/mL]	MIC [8] [µg/mL]	MIC [9, 19] [µg/mL]	MIC [10, 20] [µg/mL]	MIC [11, 21] [µg/mL]	MIC [12, 22] [µg/mL]	IC50 [13] [µM]	MIC [14] [µg/mL]	MIC [15, 23] [µg/mL]	other results
Cc1cccc(C(CC(=O)Nc2ccc(CN)cc2)c2cn(CC3CCCCC3)c3ccccc23)c1.Cl (stereo not shown) [Compound 139, N-(4-(aminomethyl)phenyl)-3-(1-(cyclohexylmethyl)-1H-indol-3-yl)-3-(m-tolyl)propanamide hydrochloride salt]	32	> 128	16	16	> 512	> 128	> 128	> 128	2	4	8	4	4	46	2	> 128	
Cc1cccc(CC(CC(=O)N[C@H]2CC[C@H](N)CC2)c2cn(CC3CCCCC3)c3ccccc23)c1.Cl (stereo partly drawn) [Compound 202, N-((1R,4R)-4-aminocyclohexyl)-3-(1-(cyclohexylmethyl)-1H-indol-3-yl)-4-(m-tolyl)butanamide hydrochloride salt]	16	32	16	16	33	128	32	64	4	8	8	16	4	10.7	2	32	
NC1CCC(NCCC(c2cccc(C(F)(F)F)c2)c2cn(CC3CCCCC3)c3ccccc23)CC1 [Compound 168, (1S,4S)-N1-(3-(1-(cyclohexylmethyl)-1H-indol-3-yl)-3-(3-(trifluoromethyl)phenyl)propyl)cyclohexane-1,4-diamine hydrochloride salt]	4	16	4	8	5	4	4	4	2	2	4	2	2	11	2	16	
Cc1ccccc1C(CCNC1CCC(N)CC1)c1cn(CC2CCCCC2)c2ccccc12 (stereo not shown) [Compound 186, N1-(3-(1-(cyclohexylmethyl)-1H-indol-3-yl)-3-(o-tolyl)propyl)cyclohexane-1,4-diamine hydrochloride salt]	2		8	8	4	4	4	8	2					3.6	4		MIC [2, 24]: 16 µg/mL; MIC [9, 25]: 4 µg/mL; MIC [10]: 4 µg/mL; MIC ([11]; ATCC29213, read-out: S. aureus ATCC 29213 MIC, Table XIII): 4 µg/mL; MIC [11, 26]: 4 µg/mL; MIC [12, 27]: 2 µg/mL; MIC [15]: 32 µg/mL
NC1CCC(NCCC(c2cccc(Cl)c2)c2cn(CC3CCCCC3)c3ccccc23)CC1 [Compound 170, (1S,4S)-N1-(3-(3-chlorophenyl)-3-(1-(cyclohexylmethyl)-1H-indol-3-yl)propyl) cyclohexane-1,4-diamine hydrochloride salt]	2	16	4	8	4	4	4	8	2	2	4	2	2	16	2	32	
N[C@H]1CC[C@H](NCCc2cn(CC3CCCCC3)c3ccc(-c4cccc(OC(F)(F)F)c4)cc23)CC1 [Compound 274, hydrochloride salt]	4	8	4	8	2	4	8	8	2	2	2	2	2	6.53	2	16	MIC ([11]; ATCC29213, Table XIII, read-out: S. aureus ATCC 29213 MIC): 4 µg/mL
NC1CCC(NC(=O)CC(c2cccc(OC(F)(F)F)c2)c2cn(CC3CCCCC3)c3ccccc23)CC1 [Compound 143, N-((1S,4S)-4-aminocyclohexyl)-3-(1-(cyclohexylmethyl)-1H-indol-3-yl)-3-(3-(trifluoromethoxy)phenyl) propanamide hydrochloride salt]	64		16	16	> 512	> 128	> 128	> 128	2					20	2		MIC [2, 24]: > 128 µg/mL; MIC [9, 25]: 4 µg/mL; MIC [10]: 16 µg/mL; MIC [11, 26]: 4 µg/mL; MIC [12, 27]: 4 µg/mL; MIC [15]: > 128 µg/mL
Cc1cccc(C(CCNC2CCC(N)CC2)c2cn(CC34CC5CC(CC(C5)C3)C4)c3ccccc23)c1 [Compound 232, (1S,4S)-N1-(3-(1-(((1S,4S)-adamantan-1-yl)methyl)-1H-indol-3-yl)-3-(m-tolyl)propyl)cyclohexane-1,4-diamine hydrochloride salt]	4	32	8	8	5	4	8	8	4	4	4	4	2	8.3	2	32	
